According to patent US20130209985A1, “SAMPLE COLLECTION DEVICES WITH BLOOD STABILIZING AGENTS” (priority 2012, published 2013):

Assays:
[1] = tested on: CD62P (P-selectin) surface expression on platelets; test: Whole blood flow cytometry of platelet CD62P surface expression (α-granule release); format: cell-based; conditions: for frequency of CD62P expression (CD62P+ platelets) / median PE fluorescence (CD62P): Example 1; for CD62P expression: Example 2, iloprost 0.5 μM where added, mean of 3 subjects; for MFI Over Time (CD62P, all platelet events): Example 3, 10 subjects
Source text: (§1) Platelet activation can result in a robust and rapid release of α-granules, dense granules, and lysosomes, the contents of which serve to promote a variety of autocrine and paracrine signal transduction events. CD62P (P-selectin) is an adhesion molecule that is transiently expressed on the platelet plasma membrane following α-granule release and can mediate platelet-leukocyte aggregates via ligation with leukocyte expressed P-selectin glycoprotein ligand 1 (PSGL-1/CD162). Dense granule and lysosome release can be measured, although not distinguished, with CD63 surface expression.
(§2) The effect of EDTA on platelet activation, as judged by CD62P and CD63 surface expression, was evaluated in the presence or absence of the platelet stabilization agent (iloprost). Whole blood was collected into tubes containing EDTA or EDTA with iloprost at 0.5, 5 and 50 μM final concentration. Antibody cocktails containing previously determined amounts of αCD61 PerCP, αCD62P PE, αCD63 Alexa Fluor® 647, and/or appropriate isotype controls were added to a conical bottom micro titer plate. A modified HEPES-Tyrode's buffer was used to equilibrate the final volume to 100 μL for each staining reaction. Platelet surface staining was performed by adding 5 μL of whole blood to the appropriate staining mix and incubating at RT under dark conditions for 15 minutes. Afterwards, the entire reaction was transferred to 5 mL round bottom polystyrene snap cap tubes containing 1 mL of HEPES-Tyrode's buffer for a final dilution of each sample. Samples were briefly vortexed and data was acquired using a BD FACScalibur instrument. FSC and SSC settings were established on the log scale in order to discern platelet size and morphology from RBC and WBC populations. In order to further discriminate platelet-specific events, a PerCP alone control was used to establish a CD61^+ gate. Since CD63 is not a platelet specific marker it was necessary to further gate on the single platelet morphology population to avoid a CD63 signature from the platelet-bound leukocytes. The PerCP alone control was also used to set fluorescence detector voltages for CD62P^−/CD63^− populations. Once voltage and compensation settings were finalized, 10,000 CD61^+/single platelet events were acquired for each test sample.
The effect of iloprost on platelet activation was studied in the presence of strong platelet-activating agents, ADP and thrombin-receptor activating peptide (TRAP). Platelet stimulations were performed by adding 300 μL blood to micro-centrifuge tubes containing 10 μL of saline (0.85%), ADP, or TRAP-6 and incubating for approximately 2 min at RT. Final concentrations of ADP and TRAP-6 were 6.5 μM and 32 μM, respectively. Afterwards, whole blood flow cytometry was performed as described above. Blood collection and flow cytometry was performed as described in example 1.
The effect of iloprost on platelet degranulation was measured in EDTA and EDTA/protease inhibitor background. Whole blood was collected into tubes containing EDTA, EDTA with iloprost, a protease inhibitor cocktail (“PIC”, which included one protease inhibitor from each class of inhibitor described in Table II in U.S. Pat. No. 7,309,468), and the cocktail with iloprost. Whole blood flow cytometry to measure CD62P expression was performed as described in example 1.

[2] = tested on: VEGF; test: Plasma biomarker release, ELISA; format: cell-based; conditions: 0, 2, 8 and 24 hr sample dwell; relative to EDTA alone
Method: (§3) Blood was collected as described in example 1. Plasma was prepared at indicated timepoints (0, 2, 8 and 24 hr sample dwell) by centrifuging the tubes at 3000 rcf for 10 min. and was used to measure levels of PDGFa/a, TGFβ1, VEGF, IL-8 (CXCL8), and RANTES (CCL5) using commercially available ELISA kits, per manufacturer's instructions.

[3] = tested on: IL-8 (CXCL8); test: Plasma biomarker release, ELISA; format: cell-based; conditions: EDTA with iloprost versus EDTA alone
Method: as §3

[4] = tested on: TGFβ1; test: Plasma biomarker release, ELISA; format: cell-based; conditions: 0, 2, 8 and 24 hr sample dwell; relative to EDTA alone
Method: as §3

[5] = tested on: RANTES (CCL5); test: Plasma biomarker release, ELISA; format: cell-based; conditions: 0, 2, 8 and 24 hr sample dwell; relative to EDTA alone
Method: as §3

[6] = tested on: PDGFa/a; test: Plasma biomarker release, ELISA; format: cell-based; conditions: 0, 2, 8 and 24 hr sample dwell; relative to EDTA alone
Method: as §3

[7] = tested on: platelet-leukocyte aggregates; test: Leukocyte-platelet aggregates by flow cytometry (αCD61/αCD45); format: cell-based; conditions: t=0, 4, 24 and 144 hr of sample dwell; versus EDTA alone; 6 subjects
Source text: Blood was collected as described in example 1. Antibody cocktails containing previously determined amounts of αCD61 (platelet marker), αCD45 (leukocyte marker) and/or appropriate isotype controls were used to detect the platelet-leukocyte aggregates at t=0, 4, 24 and 144 hr of sample dwell with the use of flow cytometry as described in example 1. […] Data representative of 6 subjects.

[8] = tested on: platelets (platelet clumping); test: Complete blood count and hematology parameters, Sysmex XE-2100; format: cell-based; conditions: compared to EDTA alone
[9] = biological target: acetylcholinesterase (AChE) (Homo sapiens, UniProt P22303); conditions: read-out: Ki for AChE; cited from earlier work
Chain of acetylcholinesterase (AChE) (P22303 32-614, species assumed): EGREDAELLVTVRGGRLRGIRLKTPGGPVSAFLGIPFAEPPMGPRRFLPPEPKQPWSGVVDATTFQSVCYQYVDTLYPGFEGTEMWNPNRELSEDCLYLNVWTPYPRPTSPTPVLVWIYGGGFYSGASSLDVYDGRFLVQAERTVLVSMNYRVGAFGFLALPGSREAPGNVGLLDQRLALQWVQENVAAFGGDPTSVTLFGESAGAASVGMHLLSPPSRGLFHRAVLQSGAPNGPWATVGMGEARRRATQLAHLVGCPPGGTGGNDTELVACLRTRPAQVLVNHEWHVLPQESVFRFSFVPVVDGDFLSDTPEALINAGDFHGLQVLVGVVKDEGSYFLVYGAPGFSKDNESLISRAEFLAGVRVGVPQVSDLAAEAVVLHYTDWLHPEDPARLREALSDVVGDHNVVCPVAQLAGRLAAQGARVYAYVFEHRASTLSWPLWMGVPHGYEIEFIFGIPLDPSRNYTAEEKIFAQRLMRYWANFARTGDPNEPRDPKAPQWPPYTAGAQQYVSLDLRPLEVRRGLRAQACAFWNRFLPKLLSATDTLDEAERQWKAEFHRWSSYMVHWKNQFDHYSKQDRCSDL

[10] = tested on: CD63 surface expression on platelets; test: Whole blood flow cytometry of platelet CD63 surface expression (dense granule/lysosome release); format: cell-based; conditions: Example 2; for CD63 surface expression: EDTA without iloprost
Source text: as §1
as §2, with “Since CD63 is not a platelet specific marker it was necessary to further gate on the single platelet morphology population to avoid a CD63 signature from the platelet-bound leukocytes.” left out, “Once voltage and compensation settings were finalized, 10,000 CD61^+/single platelet events were acquired for each test sample.” left out

[11] = whole blood in EDTA, iloprost 0.5 μM
[12] = whole blood in EDTA, iloprost 5 μM
[13] = whole blood in EDTA, iloprost 50 μM

CC#CCC(C)[C@H](O)/C=C/[C@@H]1[C@H]2C/C(=C/CCCC(=O)O)C[C@H]2C[C@H]1O (some centres unmarked) [iloprost]
frequency of CD62P expression (CD62P+ platelets) [1, 11]: 15.0% | median PE fluorescence (CD62P) [1, 11]: 7.31 | frequency of CD62P expression (CD62P+ platelets) [1, 12]: 14.1% | median PE fluorescence (CD62P) [1, 12]: 7.12 | frequency of CD62P expression (CD62P+ platelets) [1, 13]: 13.9% | median PE fluorescence (CD62P) [1, 13]: 7.06 | CD62P expression ([1]; ADP 6.5 μM activated): 17.3% | CD62P expression ([1]; TRAP-6 32 μM activated): 33.4% | CD62P expression ([1]; resting samples (saline)): 15.0% | percentage of CD62+ events ([1]; Example 10, both EDTA and PIC backgrounds, 5 subjects): reduced | expression of VEGF in plasma [2]: reduced | expression of IL-8 in plasma [3]: similar | expression of TGFβ1 in plasma [4]: reduced | expression of RANTES in plasma [5]: reduced | expression of PDGFa/a in plasma [6]: reduced | percentage of leukocyte-bound platelets [7]: reduced | mean platelet volume (MPV) ([8]; p<0.001, Paired Test): lower | decrease in platelet clumps ([8]; study of 300 normal healthy subjects): 40%

CCC1=CC2Cc3nc4cc(Cl)ccc4c(N)c3C(C1)C2 [Huprine X, (1S)-7-chloro-15-ethyl-10-azatetracyclo[11.3.1.0̂{2,11}.0̂{4,9}]heptadeca-2(11),3,5,7,9,14-hexane-3-amine]
Ki [9]: 0.026 nM

O=C(O)CN(CCN(CC(=O)O)CC(=O)O)CC(=O)O [EDTA, Ethylenediamine tetraacetic acid]
median PE fluorescence (CD62P) ([1]; whole blood in EDTA alone): 44.7 | frequency of CD62P expression (CD62P+ platelets) ([1]; whole blood in EDTA alone, no iloprost): 44.7% | CD62P expression ([1]; ADP 6.5 μM activated): 85.1% | CD62P expression ([1]; TRAP-6 32 μM activated): 99.4% | CD62P expression ([1]; resting samples (saline)): 44.6% | MFI Over Time (CD62P, all platelet events) ([1]; 0 hrs sample dwell): 20.21 | MFI Over Time (CD62P, all platelet events) ([1]; 2 hrs sample dwell): 42.66 | MFI Over Time (CD62P, all platelet events) ([1]; 8 hrs sample dwell): 33.14 | MFI Over Time (CD62P, all platelet events) ([1]; 24 hrs sample dwell): 63.02 | MFI (CD62P, all platelet events) ([1]; Example 10, 5 subjects): 171.56 | CD63 surface expression ([10]; ADP 6.5 μM): 7.67% | CD63 expression ([10]; TRAP-6 32 μM stimulated, iloprost 0.5, 5, 50 μM where added): 69.3% | CD63 surface expression ([10]; unstimulated): 2.13%
